Assays:
[1] = target: Bromodomain-containing protein 4 (Homo sapiens) (UniProt O60885); assay: BRD4 SGC Tm panel (DSF); conditions: for ΔTm: Compound concentration 10.0 uM
[2] = target: Death-associated protein kinase 1 (Homo sapiens) (UniProt P53355); assay: DAPK1 SGC Tm panel (DSF); conditions: for ΔTm: Compound concentration 10.0 uM
[3] = target: T1, Serine/threonine-protein kinase Nek1 (Homo sapiens) (UniProt Q96PY6); assay: NEK1 SGC Tm panel (DSF); conditions: for ΔTm: Compound concentration 10.0 uM
T1 sequence (whole entry): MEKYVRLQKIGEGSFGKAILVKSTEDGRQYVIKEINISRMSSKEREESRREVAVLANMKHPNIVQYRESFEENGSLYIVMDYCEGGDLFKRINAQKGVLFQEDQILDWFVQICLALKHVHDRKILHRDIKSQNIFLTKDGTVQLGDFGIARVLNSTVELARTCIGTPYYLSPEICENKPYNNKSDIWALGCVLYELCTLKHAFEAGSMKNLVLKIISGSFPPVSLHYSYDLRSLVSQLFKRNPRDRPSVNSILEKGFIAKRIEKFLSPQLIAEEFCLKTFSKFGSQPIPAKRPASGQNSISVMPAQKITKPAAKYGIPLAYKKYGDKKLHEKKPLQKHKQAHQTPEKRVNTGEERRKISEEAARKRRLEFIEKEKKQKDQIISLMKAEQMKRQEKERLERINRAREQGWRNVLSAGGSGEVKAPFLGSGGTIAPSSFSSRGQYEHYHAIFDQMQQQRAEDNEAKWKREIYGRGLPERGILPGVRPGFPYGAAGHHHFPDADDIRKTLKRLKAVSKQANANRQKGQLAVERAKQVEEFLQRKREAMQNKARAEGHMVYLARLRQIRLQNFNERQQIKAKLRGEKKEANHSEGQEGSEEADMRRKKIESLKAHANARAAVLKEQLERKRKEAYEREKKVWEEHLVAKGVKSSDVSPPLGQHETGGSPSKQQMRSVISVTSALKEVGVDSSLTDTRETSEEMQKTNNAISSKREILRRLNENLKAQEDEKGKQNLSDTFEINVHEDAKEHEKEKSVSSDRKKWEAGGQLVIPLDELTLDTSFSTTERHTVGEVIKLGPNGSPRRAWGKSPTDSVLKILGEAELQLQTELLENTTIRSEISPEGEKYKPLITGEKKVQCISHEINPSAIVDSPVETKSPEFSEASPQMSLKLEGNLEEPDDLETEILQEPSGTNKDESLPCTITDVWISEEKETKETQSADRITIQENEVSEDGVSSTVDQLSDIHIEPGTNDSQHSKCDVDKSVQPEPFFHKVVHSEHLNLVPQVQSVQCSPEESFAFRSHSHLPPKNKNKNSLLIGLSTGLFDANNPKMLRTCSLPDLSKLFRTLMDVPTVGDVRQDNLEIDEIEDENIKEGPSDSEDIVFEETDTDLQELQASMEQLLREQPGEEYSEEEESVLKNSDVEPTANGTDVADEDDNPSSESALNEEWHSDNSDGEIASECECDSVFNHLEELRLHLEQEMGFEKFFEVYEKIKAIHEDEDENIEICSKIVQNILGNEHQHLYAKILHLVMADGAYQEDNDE

[4] = target: MAP/microtubule affinity-regulating kinase 3 (Homo sapiens) (UniProt P27448); assay: MARK3 SGC Tm panel (DSF); conditions: for ΔTm: Compound concentration 10.0 uM
[5] = target: G protein-coupled receptor kinase 5 (Homo sapiens) (UniProt P34947); assay: GPRK5 SGC Tm panel (DSF); conditions: for ΔTm: Compound concentration 10.0 uM
[6] = target: T2, 5-hydroxytryptamine receptor 2C (Homo sapiens) (UniProt P28335); conditions: Compound concentration 10.0 uM
T2 sequence (whole entry): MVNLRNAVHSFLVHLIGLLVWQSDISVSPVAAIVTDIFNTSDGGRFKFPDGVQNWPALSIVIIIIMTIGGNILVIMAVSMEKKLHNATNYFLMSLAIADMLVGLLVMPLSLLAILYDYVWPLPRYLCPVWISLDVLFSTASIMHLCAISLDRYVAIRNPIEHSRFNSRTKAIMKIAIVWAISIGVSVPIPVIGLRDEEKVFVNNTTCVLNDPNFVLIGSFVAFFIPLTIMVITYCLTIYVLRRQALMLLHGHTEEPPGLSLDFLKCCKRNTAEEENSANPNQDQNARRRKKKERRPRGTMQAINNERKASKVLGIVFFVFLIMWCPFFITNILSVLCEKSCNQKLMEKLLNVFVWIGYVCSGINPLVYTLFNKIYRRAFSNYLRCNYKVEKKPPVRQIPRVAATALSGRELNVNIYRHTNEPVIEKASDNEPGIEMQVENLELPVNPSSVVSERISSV

[7] = target: T3, Dual specificity mitogen-activated protein kinase kinase 7 (Homo sapiens) (UniProt O14733); assay: MAP2K7 SGC Tm panel (DSF); conditions: for ΔTm: Compound concentration 10.0 uM
T3 sequence (whole entry): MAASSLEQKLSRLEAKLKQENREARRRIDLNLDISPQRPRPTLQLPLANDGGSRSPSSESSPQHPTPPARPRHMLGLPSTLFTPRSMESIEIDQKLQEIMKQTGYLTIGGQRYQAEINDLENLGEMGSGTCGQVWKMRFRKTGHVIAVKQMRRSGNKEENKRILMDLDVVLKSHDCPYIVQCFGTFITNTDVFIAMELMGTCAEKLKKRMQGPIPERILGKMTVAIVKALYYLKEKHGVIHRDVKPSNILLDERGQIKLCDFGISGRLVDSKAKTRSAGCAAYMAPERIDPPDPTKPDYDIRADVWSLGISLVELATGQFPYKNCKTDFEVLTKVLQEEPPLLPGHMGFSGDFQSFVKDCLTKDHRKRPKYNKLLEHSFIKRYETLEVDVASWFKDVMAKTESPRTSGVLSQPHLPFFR

[8] = target: Mitogen-activated protein kinase 1 (Homo sapiens) (UniProt P28482); assay: MAPK1 SGC Tm panel (DSF); conditions: for ΔTm: Compound concentration 10.0 uM
[9] = target: Ribosomal protein S6 kinase alpha-1 (Homo sapiens) (UniProt Q15418); assay: RPS6KA1 SGC Tm panel (DSF); conditions: for ΔTm: Compound concentration 10.0 uM
[10] = target: Beta-1 adrenergic receptor (Homo sapiens) (UniProt P08588); conditions: Compound concentration 10.0 uM
Beta-1 adrenergic receptor (Homo sapiens), sequence (P08588 whole entry, looked up): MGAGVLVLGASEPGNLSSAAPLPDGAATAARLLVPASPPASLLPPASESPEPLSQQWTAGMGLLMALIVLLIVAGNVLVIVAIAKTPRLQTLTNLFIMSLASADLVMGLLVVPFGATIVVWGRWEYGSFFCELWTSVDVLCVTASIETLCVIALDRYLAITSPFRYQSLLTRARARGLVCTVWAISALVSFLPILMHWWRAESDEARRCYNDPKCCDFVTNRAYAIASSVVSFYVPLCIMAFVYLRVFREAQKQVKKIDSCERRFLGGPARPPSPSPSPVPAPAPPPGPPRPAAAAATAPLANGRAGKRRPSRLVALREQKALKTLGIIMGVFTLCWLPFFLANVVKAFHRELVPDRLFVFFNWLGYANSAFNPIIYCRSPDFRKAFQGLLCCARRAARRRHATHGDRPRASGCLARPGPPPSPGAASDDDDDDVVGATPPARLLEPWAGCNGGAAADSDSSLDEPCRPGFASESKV

MAP/microtubule affinity-regulating kinase 3 (Homo sapiens), sequence (P27448 whole entry, looked up): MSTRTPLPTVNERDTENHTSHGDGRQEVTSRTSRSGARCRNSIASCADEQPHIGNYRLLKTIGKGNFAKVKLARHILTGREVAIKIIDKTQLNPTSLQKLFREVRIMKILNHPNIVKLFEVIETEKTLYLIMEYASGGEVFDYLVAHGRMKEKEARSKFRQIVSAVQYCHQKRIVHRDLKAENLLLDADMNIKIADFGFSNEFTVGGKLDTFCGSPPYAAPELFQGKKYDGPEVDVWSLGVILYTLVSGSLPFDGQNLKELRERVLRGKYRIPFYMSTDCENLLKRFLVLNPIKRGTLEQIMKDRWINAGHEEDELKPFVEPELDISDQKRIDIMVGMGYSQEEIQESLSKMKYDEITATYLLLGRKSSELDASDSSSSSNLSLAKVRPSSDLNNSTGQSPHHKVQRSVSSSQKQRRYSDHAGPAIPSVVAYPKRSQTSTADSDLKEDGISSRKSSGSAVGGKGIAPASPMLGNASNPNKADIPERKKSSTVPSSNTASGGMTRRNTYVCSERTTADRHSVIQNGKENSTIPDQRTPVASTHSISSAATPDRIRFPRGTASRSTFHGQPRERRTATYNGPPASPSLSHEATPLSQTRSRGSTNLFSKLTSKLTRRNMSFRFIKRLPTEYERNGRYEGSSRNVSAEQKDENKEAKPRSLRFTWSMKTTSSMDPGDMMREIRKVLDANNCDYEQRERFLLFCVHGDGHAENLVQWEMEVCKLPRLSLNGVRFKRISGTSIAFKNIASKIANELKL
Ribosomal protein S6 kinase alpha-1 (Homo sapiens), sequence (Q15418 whole entry): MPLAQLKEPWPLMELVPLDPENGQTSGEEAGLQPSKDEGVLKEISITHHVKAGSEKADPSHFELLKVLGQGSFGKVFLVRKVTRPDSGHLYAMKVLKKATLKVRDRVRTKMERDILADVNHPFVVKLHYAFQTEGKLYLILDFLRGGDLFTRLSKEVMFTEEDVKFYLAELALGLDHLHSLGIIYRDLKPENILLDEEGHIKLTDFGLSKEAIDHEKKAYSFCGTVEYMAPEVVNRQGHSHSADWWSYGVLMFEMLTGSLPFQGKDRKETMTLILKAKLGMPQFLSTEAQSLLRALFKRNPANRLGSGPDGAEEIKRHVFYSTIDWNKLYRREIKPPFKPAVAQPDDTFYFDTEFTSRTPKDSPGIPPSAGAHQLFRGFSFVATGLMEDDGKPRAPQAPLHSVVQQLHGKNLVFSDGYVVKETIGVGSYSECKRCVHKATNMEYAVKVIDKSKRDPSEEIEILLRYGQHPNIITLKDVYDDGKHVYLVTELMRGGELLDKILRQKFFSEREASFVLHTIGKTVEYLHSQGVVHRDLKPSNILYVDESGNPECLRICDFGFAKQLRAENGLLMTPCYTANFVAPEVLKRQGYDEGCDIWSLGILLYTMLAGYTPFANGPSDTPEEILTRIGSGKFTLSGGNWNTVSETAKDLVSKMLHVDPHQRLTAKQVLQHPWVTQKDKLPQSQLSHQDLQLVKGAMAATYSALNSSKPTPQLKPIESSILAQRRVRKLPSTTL
Death-associated protein kinase 1 (Homo sapiens), sequence (P53355 whole entry, looked up): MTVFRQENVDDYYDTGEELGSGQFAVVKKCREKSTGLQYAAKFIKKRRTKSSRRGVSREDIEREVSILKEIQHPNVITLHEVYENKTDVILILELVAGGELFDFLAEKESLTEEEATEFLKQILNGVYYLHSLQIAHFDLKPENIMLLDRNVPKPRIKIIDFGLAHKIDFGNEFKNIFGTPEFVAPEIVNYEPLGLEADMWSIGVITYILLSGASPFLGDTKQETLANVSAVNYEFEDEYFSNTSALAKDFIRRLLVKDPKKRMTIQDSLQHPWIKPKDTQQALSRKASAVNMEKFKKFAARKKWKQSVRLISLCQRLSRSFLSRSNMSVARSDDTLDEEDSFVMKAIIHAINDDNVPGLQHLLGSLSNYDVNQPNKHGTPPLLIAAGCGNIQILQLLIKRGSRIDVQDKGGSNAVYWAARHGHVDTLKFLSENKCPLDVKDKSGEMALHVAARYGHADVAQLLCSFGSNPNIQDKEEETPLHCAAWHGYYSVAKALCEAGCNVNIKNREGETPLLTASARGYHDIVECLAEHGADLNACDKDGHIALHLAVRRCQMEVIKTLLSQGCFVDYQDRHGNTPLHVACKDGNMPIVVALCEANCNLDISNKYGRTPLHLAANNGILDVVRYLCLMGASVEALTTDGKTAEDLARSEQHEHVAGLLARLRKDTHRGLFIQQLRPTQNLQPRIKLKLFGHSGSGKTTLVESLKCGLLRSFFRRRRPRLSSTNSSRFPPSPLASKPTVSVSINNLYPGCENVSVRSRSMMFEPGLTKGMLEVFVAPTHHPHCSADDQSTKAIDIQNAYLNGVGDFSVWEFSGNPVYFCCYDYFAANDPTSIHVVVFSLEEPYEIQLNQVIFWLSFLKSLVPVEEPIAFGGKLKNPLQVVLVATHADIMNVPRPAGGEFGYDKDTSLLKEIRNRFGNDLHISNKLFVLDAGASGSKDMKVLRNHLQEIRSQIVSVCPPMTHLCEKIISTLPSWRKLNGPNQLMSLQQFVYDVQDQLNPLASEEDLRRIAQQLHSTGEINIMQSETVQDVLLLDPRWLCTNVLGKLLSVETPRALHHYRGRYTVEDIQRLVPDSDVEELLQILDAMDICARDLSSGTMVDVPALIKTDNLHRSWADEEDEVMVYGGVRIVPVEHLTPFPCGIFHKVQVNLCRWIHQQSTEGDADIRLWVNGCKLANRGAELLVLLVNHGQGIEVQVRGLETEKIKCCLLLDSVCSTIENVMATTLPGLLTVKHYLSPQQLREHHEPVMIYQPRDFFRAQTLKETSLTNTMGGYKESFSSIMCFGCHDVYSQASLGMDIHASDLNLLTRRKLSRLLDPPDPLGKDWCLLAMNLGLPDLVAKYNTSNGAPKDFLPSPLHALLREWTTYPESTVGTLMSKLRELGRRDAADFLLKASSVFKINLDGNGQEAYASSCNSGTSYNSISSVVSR
G protein-coupled receptor kinase 5 (Homo sapiens), sequence (P34947 whole entry, looked up): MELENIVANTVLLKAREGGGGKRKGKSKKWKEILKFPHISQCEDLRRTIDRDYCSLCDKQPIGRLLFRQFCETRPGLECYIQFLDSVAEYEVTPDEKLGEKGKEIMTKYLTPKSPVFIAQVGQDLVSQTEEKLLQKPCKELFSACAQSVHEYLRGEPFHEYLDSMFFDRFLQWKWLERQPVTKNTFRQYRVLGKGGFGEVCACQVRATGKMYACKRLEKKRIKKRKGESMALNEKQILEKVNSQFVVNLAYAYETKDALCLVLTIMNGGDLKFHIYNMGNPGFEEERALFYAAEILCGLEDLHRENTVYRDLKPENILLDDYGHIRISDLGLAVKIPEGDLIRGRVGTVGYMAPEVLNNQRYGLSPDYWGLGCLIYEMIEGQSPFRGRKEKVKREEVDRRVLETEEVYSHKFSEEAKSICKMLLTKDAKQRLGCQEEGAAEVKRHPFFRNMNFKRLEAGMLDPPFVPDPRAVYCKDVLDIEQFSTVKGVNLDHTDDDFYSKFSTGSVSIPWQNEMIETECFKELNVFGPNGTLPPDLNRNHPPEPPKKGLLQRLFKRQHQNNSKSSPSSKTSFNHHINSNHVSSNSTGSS
Mitogen-activated protein kinase 1 (Homo sapiens), sequence (P28482 whole entry): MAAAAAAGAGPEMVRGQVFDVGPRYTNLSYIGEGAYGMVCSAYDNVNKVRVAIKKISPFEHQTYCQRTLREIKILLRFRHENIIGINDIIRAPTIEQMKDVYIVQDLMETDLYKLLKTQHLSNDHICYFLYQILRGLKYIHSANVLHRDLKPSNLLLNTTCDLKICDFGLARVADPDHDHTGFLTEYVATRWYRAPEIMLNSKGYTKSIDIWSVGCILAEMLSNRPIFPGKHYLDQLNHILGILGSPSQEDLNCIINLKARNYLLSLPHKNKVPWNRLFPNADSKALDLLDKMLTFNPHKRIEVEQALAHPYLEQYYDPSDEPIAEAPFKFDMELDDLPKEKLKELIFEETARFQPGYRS

Compound | delta Tm Staurosporine positive control [1] | ΔTm [1] | delta Tm Staurosporine positive control [2] | ΔTm [2] | delta Tm Staurosporine positive control [3] | ΔTm [3] | delta Tm Staurosporine positive control [4] | ΔTm [4] | delta Tm Staurosporine positive control [5] | ΔTm [5] | inhibition [6] | delta Tm Staurosporine positive control [7] | ΔTm [7] | delta Tm Staurosporine positive control [8] | ΔTm [8] | delta Tm Staurosporine positive control [9] | ΔTm [9] | inhibition [10]
CCC[C@@H]1CNCc2c1[nH]c(=O)c(C#N)c2N1CCC2(CC1)CC2 | 2.04 | 0.857 | 9.84 | -0.225 | 2.43 | 0.25 | 17.5 | -0.214 | 7.03 | 0.00192 | 9.88% | 7.05 | -1.17 | 3.56 | -0.19 | 4.78 | -0.0442 | 5.97%
CCC[C@H]1CNCc2c1[nH]c(=O)c(C#N)c2N1CCC2(CC1)CC2 | 2.04 | 0.19 | 9.84 | 0.2 | 2.43 | 0.404 | 17.5 | -0.331 | 7.03 | 0.0527 | 8.81% | 7.05 | -1.17 | 3.56 | -0.182 | 4.78 | -0.0815 | -8.08%
